Laboratory results: patent publication US20070213291A1, “Therapeutically useful synthetic oligonucleotides” (priority 1999, published 2007)

Experiments:
telomerase = molecular target: T1, telomerase (Homo sapiens, UniProt O14746); assay: PCR-telomeric repeat amplification protocol (TRAP) on Jurkat T cell extracts; assay type: biochemical; conditions: concentrations between 1 and 100 μg/ml, extracts from 2×10^5 Jurkat T cells
T1 construct: extracts from 2×10^5 Jurkat T cells were assayed using the PCR-telomeric repeat amplification protocol (TRAP); endogenous in cells; host or cells: Jurkat T cells (cell extract)
Description: To determine telomerase activity, extracts from 2×10^5 Jurkat T cells were assayed using the PCR-telomeric repeat amplification protocol (TRAP) (Roche, Laval, Québec, Canada).

[1] = test system: MCF-7 human breast cancer cells; assay: Inhibition of MCF-7 cell proliferation (MTT); assay type: cell-based; conditions: for % INHIBITION of MCF-7 human breast cancer cell proliferation: 100 μg/ml, 48 h, 5×10^5 cells/ml
How it was run: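 Cells at 2.5×10^5 cells/ml (GT 3- and 6-base series at 5×10^5 cells/ml) treated with 100 μg/ml of 2-45-base oligonucleotide sequences versus untreated control for 48 h at 37 °C, 5% CO2. Proliferation read by MTT reduction at 570 nm.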

[2] = test system: LNCaP human prostate cancer cells; assay: Inhibition of LNCaP cell proliferation (MTT); assay type: cell-based; conditions: 100 μg/ml, 48 h, 5×10^5 cells/ml
Description: (§1) Cells were seeded in 6 (1 ml/well), 24 (0.5 ml/well) or 96 (0.1 ml/well) well flat-bottom microplates and were maintained at 37° C. in a 5% CO2 atmosphere. Unless stated otherwise, 2.5×10^5 cells/ml were incubated with 0 μg/ml (control) and 100 μg/ml (treated) of 2 to 45 base sequences containing A, C, G and T for 48 h.
(§2) Cell proliferation was measured using dimethylthiazol-diphenyl-tetrazolium (MTT) reduction (Mosman et al. J. Immunol. Methods 65:55, 1983). MTT was measured at a wavelength of 570 nm using a multiplate spectrophotometer reader (ELX800, Bio-TEK Instruments Inc., Winooski, Vt.).
LNCaP prostate cancer cells are a TGF-beta 1 receptor negative, […], metastatic human solid tumor model. LNCaP cells (5×10^5 cells/ml) were incubated with 6 base GT sequences (Table 9).

[3] = test system: EL-4 murine T lymphoma cells; assay: Inhibition of EL-4 cell proliferation (MTT); assay type: cell-based; conditions: 100 μg/ml, 48 h
Description: as §1, §2
EL-4 murine lymphoma T cells are a suspension tumor model. EL-4 murine lymphoma T cells were incubated with 6, 18, 27 and 33 base GT sequences and with a 15 base ACG sequence (Table 18).

[4] = test system: Jurkat human leukemia T cells; assay: Cell cycle stage in Jurkat cells (propidium iodide flow cytometry); assay type: cell-based; conditions: Jurkat, 24 h, 100 μg/ml
How it was run: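 Exponentially growing Jurkat cells were exposed for 24 h to 2–45-base A/C/G/T oligonucleotides, or at 1×10^6 cells/ml to 6-base GT and AC strands, alone (heated 10 min, 65 °C) or hybridized 1:1. Detergent-, trypsin-, RNase- and spermine-treated nuclei were propidium iodide-stained and scored for G0/G1, early/mid/late S and G2/M by doublet-discriminating flow cytometry.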

[5] = test system: Jurkat human leukemia T cells; assay: Inhibition of Jurkat human leukemia T cell proliferation (MTT reduction); assay type: cell-based; conditions: 100 μg/ml sequence, 48 h, 2.5×10^5 cells/ml
How it was run: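 Jurkat cells at 2.5×10^5 cells/ml exposed to 100 μg/ml of 2–45-base A/C/G/T sequences (0 μg/ml control) for 48 h, 37° C, 5% CO2. Viability by MTT reduction read at 570 nm.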

[6] = test system: THP-1 human acute monocytic leukemia cells; assay: Cytokine production by THP-1 cells (ELISA); assay type: cell-based; conditions: THP-1, 1×10^6 cells, 100 μg/ml, 48 h, p70 complex and free p40
How it was run: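 1×10^6 cells exposed to 100 μg/ml of each oligonucleotide sequence for 48 h at 37° C in 5% CO2, unless stated otherwise. Cytokines quantified in culture supernatant by ELISA, IL-12 assay detecting both p70 and free p40; values are fold increase over untreated control cells.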

[7] = test system: Jurkat human leukemia T cells; assay: NuMA release into supernatant (ELISA); assay type: cell-based; conditions: Jurkat, 50 μM sequence
How it was run: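 Jurkat T cells (1×10^6/ml) exposed to GT-containing oligonucleotide sequences, at 50 μM in some experiments, for 24 h in some experiments. NuMA released into the supernatant quantified by commercial ELISA.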

[8] = test system: LNCaP human prostate cancer cells; assay: LNCaP human prostate cancer xenografts in male nude nu/nu mice; assay type: in vivo; conditions: after 4 weeks of treatment, compared with other groups (group 1 saline, group 5 BCG A-3)
Description: LNCaP human prostate cancer cells are implanted subcutaneously, as xenografts, in male nude nu/nu mice. The mice are divided into 5 groups of 10 mice. On day 0, group 1 mice receive saline, group 2 mice receive 3 base SEQ ID NO:8, group 3 mice receive 6 base GT SEQ ID NO:25, group 4 mice receive 6 base AG SEQ ID NO:45 and group 5 mice receive 45 base BCG A-3 SEQ ID NO:69. After 4 weeks of treatment, the mice are sacrificed and timor mass is determined.

[9] = test system: PC-3 human prostate cancer cells; assay: Inhibition of PC-3 cell proliferation (MTT); assay type: cell-based; conditions: 100 μg/ml, 48 h, 5×10^5 cells/ml
Description: as §1, §2
PC-3 prostate cancer cells are a p53 mutated, androgen-independent human solid tumor model. PC-3 cells (5×10^5 cells/ml) were incubated with 3 and 6 base GT sequences (Table 8).

[10] = test system: EL-4 murine T lymphoma cells; assay: EL-4 murine T lymphoma in C57/BL6 mice; assay type: in vivo; conditions: after 4 weeks of treatment, compared with group 1 (saline)
Description: EL-4 murine T lymphoma cells are implanted into C57/BL6 mice. The mice are divided into 6 groups of 10 mice. On day 0, group 1 mice receive saline, group 2 mice receive 3 base GT SEQ ID NO:8, group 3 mice receive 6 base SEQ ID NO:25, group 4 mice receive 6 base AG SEQ ID NO:45, group 5 mice receive 18 base GT SEQ ID NO: 18 and group 6 mice receive 27 base GT SEQ ID NO:1. After 4 weeks of treatment, the mice are sacrificed and tumor mass is determined.

[11] = test system: Jurkat human leukemia T cells; assay: Apoptosis by phosphatidylserine/annexin V-FITC flow cytometry; assay type: cell-based; conditions: 50 μM sequence
How it was run: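 Jurkat cells were exposed to 3–7-base oligonucleotides (GT, ACGT, AG, GG, AGT, CGT sequences) at 50 μM. Separately, 6-base GT and complementary AC sequences, alone or hybridized 1:1 (10 min, 65 °C), were applied for 24 h. Phosphatidylserine exposure was quantified by flow cytometry with FITC-annexin V.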

[12] = test system: MCF-7 human breast cancer cells; assay: MCF-7 human breast tumor xenografts in female nude BALB/c mice; assay type: in vivo; conditions: after 4 weeks of treatment, compared with other groups (group 1 saline)
Description: MCF-7 human breast cancer cells are implanted subcutaneously as xenografts, in female nude BALB/c mice. The mice are divided into 6 groups of 10 mice. […] After 4 weeks of treatment, the mice are sacrificed and tumor mass is determined.

T1 sequence (O14746 whole entry): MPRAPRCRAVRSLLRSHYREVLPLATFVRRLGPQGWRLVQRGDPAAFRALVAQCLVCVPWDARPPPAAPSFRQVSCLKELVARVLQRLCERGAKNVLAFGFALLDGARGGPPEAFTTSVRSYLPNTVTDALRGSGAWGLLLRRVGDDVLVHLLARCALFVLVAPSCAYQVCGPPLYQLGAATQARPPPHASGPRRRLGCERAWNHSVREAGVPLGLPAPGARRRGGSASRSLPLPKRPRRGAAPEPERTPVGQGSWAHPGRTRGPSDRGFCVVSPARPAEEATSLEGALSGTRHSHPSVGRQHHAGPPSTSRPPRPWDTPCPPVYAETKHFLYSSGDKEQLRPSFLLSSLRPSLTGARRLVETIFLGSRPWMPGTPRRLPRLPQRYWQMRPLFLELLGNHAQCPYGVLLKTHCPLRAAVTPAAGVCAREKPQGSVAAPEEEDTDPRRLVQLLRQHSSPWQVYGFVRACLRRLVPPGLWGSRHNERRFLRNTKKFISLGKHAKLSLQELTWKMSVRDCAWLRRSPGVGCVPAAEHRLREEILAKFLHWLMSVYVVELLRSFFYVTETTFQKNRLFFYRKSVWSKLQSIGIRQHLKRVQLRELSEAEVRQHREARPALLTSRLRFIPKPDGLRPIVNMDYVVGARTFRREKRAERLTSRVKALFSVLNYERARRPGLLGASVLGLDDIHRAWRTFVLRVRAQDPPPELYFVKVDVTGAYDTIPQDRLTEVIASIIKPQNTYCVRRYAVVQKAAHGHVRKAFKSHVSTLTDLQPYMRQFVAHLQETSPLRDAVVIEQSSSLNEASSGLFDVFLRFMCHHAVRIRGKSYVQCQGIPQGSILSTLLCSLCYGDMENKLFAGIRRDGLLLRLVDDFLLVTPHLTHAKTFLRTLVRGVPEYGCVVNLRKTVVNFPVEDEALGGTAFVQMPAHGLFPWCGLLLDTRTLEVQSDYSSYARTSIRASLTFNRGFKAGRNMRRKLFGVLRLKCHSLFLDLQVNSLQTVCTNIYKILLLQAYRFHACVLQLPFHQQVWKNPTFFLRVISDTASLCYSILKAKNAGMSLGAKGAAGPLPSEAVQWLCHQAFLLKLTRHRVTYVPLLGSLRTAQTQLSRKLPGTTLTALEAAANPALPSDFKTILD

## GGGTGG [SEQ ID NO:25 phosphorothioate]
telomerase
  anti-telomerase activity: Neither GT SEQ ID NO:25-phosphorothioate nor GT SEQ ID NO:49-phosphodiester showed any anti-telomerase actvity
[1]
  % INHIBITION of MCF-7 human breast cancer cell proliferation: 12%
[2]
  % INHIBITION of LNCaP human prostate cancer cell proliferation: −8%
[3]
  % INHIBITION of EL-4 murine T lymphoma cell proliferation: −8%
[4]
  % of cells in phase: G0/G1: 34.9%
  % of cells in phase: G2/M: 24.7%
  % of cells in phase: SE: 14.8%
  % of cells in phase: SL: 10.6%
  % of cells in phase: SM: 15.0%
  Arrest (cell cycle): None
[5]
  % INHIBITION of Jurkat human leukemia T cell proliferation: 0%
[6]
  ↑ IL-12 (fold increase treated vs control cells): 0.0x
[6]; listed as GsGsGsTsGsGs
  ↑ IL-12 (fold increase treated vs control cells): 0 x

## GTG (chemistry not given here) [SEQ ID NO:8]
[7]
  % NuMA released (treated vs untreated cells): 97%
[1]
  % INHIBITION of MCF-7 human breast cancer cell proliferation: 18%
[8]
  tumor mass: less tumor mass than groups 1 and 5 mice
[9]
  % INHIBITION of PC-3 human prostate cancer cell proliferation: 13%
[10]
  tumor mass: less tumor mass than group 1 mice
[11]
  % of cells in apoptosis (positive for PS/A-V staining): 21%
[5]
  % INHIBITION of Jurkat human leukemia T cell proliferation: 46%

## CC/C(=C(\c1ccccc1)c1ccc(OCCN(C)C)cc1)c1ccccc1 [Tamoxifen, reference compound]
[1]; Homo sapiens, MCF7, tamoxifen 1.0 μg/ml, alone or with sequence at 1.0 μg/ml, read-out: % INHIBITION of MCF-7 proliferation, Tamoxifen 1.0 μg/ml
  inhibition at 1 µg/mL: 18%
[1]; tamoxifen 0.1 μg/ml, alone or with sequence at 1.0 μg/ml
  % INHIBITION of MCF-7 proliferation, Tamoxifen 0.1 μg/ml: 10%
[1]; tamoxifen 10.0 μg/ml, alone or with sequence at 1.0 μg/ml
  % INHIBITION of MCF-7 proliferation, Tamoxifen 10.0 μg/ml: 15%
[12]
  tumor mass: less tumor mass than group 1 mice
